In one data set the test system is dog platelets. The data set is described as follows: Inhibition of platelet aggregation (dog platelets, agonist-induced, Chrono-Log Lumi-Aggregometer). Type of data set: cell-based. Conditions: Canis lupus familiaris, stimulated by ADP, between about. The protocol:
(§1) Blood was collected (citrated to prevent coagulation) from, naive, adult mongrel dogs. Platelet rich plasma, PRP, was prepared by centrifugation at 150×g for 10 min at room temperature. Washed platelets were prepared by centrifuging PRP at 800×g for 10 min. The cell pellet thus obtained was washed twice in Tyrode's buffer (pH 6.5) without Ca^++ and resuspended in Tyrode's buffer (pH 7.4) containing 1.8 mM Ca^++ at 3×10^5 cells/mL. Peptides were added 3 min. prior to the agonist in all assays of platelet aggregation. Final agonist concentrations were 0.1 unit/mL thrombin and […] (Sigma). Aggregation was monitored in a Chrono-Log Lumi-Aggregometer. Light transmittance 5 min after addition of the agonist was used to calculate percent aggregation according to the formula % aggregation =[(90-CR)[…]]×100, where CR is the chart reading, 90 is the baseline, and 10 is the PRP blank reading. IC50 's were determined by plotting [% inhibition of aggregation] vs. [concentration of peptide]. Peptides were assayed at 200 μM and diluted sequentially by a factor of 2 to establish a suitable dose response curve.

Data set [1] is described as follows: Stability of the peptide to plasma proteases in platelet-rich plasma (3 h incubation prior to agonist). It is filed as in vitro ADME, dog. The settings on record: up to 3 h. The method, then:
as §1
To assess the stability of the peptide to plasma proteases, the peptides were incubated for 3 h (rather than 3 min) in the PRP prior to addition of the agonist.

Each structure is given as a SMILES string.

The compound `CN(C(=O)c1ccccc1)[C@@H](CCCNC(=N)N)C(=O)NCC1=CC(CC(=O)O)C(=O)N(c2ccccc2)CC1` (stereo partly shown) [Example 1, 1-phenyl-2-oxo-3-carboxymethyl-5-[(N-benzoyl-N-methyl-arginylamino)methyl]-2,3,6,7-tetrahydro-1H-azepine] yielded an IC50 with dog platelets of 500 to 1500 nM. For the same compound, the “stability in platelet-rich plasma” value in data set [1] is on record as “stable in platelet-rich plasma for up to 3 h”.
For `CC(=O)N(C)[C@@H](CCCNC(=N)N)C(=O)NCC1=CC(CC(=O)O)C(=O)N(c2ccccc2)CC1` (stereo partly shown) [Example 2, 1-phenyl-2-oxo-3-carboxymethyl-5-[acetyl-(N-methylarginyl)-aminomethyl]-2,3,6,7-tetrahydro-1H-azepine] the same measures were 500 to 1500 nM and “stable in platelet-rich plasma for up to 3 h”.
